What was measured:
Ephrin type-A receptor 2 = Ephrin type-A receptor 2 (Homo sapiens, UniProt P29317); assay: Inhibition of recombinant human N-terminal His6-tagged EphA2 (N598 to R890 residues) expressed in baculovirus using poly-EY as substrate after 180 mins by luciferase coupled chemiluminescence assay
Ephrin type-B receptor 4 = target: T1, Ephrin type-B receptor 4 (Homo sapiens, UniProt P54760); assay: Inhibition of recombinant human N-terminal His6-tagged EphB4 kinase domain (E605 to E890 residues) expressed in baculovirus using poly-AEKY as substrate after 150 mins in presence of gamma33P-ATP by liquid scintillation spectrometry
T1 sequence (P54760 whole entry): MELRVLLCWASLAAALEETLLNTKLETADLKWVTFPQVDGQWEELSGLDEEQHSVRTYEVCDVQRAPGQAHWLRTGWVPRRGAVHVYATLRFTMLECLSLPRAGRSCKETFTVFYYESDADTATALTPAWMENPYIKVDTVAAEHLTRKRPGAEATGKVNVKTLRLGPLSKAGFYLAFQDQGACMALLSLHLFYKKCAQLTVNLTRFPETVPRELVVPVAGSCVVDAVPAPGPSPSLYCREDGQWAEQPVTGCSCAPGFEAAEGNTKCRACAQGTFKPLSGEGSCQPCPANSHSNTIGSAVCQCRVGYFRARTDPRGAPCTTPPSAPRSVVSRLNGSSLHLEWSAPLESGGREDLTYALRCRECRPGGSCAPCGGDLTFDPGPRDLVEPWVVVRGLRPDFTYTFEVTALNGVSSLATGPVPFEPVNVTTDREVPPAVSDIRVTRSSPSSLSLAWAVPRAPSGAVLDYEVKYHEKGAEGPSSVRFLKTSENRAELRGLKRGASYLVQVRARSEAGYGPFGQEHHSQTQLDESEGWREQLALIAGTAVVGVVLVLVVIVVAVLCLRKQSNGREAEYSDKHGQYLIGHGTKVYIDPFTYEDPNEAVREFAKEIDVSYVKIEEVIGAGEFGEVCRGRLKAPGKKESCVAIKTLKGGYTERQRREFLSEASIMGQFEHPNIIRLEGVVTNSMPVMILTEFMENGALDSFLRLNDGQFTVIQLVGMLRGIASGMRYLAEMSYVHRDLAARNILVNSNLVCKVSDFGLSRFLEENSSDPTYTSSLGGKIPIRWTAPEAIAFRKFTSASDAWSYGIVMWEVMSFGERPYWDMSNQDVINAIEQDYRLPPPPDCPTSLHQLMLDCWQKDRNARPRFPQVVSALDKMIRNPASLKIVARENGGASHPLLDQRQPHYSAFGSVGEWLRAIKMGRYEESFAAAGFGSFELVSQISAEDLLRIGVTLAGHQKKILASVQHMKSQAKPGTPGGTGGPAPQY

[1] = target: Receptor tyrosine-protein kinase erbB-2 (Homo sapiens, UniProt P04626); assay: Inhibition of recombinant human N-terminal GST His6-tagged thrombin cleavage site-fused ErbB2 kinase domain (Q679 to V1255 residues) expressed in baculovirus infected insect Sf9 cells using biotinylated poly-EY as substrate after 60 mins by alphascreen assay
Chain of Receptor tyrosine-protein kinase erbB-2 (P04626 whole entry, the tested form may be a part): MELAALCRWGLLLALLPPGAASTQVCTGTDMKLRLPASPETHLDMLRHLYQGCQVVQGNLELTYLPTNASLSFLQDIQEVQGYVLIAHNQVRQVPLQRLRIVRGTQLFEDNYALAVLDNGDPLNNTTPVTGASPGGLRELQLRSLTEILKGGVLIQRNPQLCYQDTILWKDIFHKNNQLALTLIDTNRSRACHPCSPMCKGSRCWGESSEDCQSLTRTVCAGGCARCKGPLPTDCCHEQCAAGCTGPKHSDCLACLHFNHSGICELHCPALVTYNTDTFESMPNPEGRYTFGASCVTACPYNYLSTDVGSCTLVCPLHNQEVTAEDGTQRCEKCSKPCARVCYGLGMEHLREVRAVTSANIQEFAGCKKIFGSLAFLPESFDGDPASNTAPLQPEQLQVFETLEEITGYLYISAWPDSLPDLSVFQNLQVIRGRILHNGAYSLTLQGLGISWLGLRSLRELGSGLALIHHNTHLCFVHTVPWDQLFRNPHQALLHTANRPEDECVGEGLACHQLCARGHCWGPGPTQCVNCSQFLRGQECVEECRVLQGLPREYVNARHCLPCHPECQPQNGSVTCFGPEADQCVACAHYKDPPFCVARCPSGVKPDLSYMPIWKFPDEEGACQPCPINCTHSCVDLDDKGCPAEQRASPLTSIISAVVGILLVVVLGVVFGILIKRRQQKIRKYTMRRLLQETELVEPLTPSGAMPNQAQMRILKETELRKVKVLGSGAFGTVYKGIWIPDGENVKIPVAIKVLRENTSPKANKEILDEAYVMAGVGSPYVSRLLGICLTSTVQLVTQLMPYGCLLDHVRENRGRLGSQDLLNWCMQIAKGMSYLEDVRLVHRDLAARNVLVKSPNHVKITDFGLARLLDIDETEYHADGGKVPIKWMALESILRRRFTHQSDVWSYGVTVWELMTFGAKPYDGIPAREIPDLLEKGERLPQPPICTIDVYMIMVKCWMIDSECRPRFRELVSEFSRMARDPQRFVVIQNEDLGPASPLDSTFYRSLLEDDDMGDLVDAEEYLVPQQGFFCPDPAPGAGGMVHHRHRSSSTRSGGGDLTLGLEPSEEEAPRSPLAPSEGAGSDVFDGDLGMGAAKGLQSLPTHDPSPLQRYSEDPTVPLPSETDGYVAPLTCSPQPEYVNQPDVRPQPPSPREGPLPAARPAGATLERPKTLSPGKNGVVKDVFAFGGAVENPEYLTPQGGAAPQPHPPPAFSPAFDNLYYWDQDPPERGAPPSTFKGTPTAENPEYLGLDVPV

[2] = target: Vascular endothelial growth factor receptor 2 (Homo sapiens, UniProt P35968); assay: Inhibition of recombinant human N-terminal GST-fused KDR (D807 to V1356 residues) expressed in baculovirus infected […] insect Sf9 cells using poly-EY as substrate after 240 mins by luciferase coupled chemiluminescence assay
Chain of Vascular endothelial growth factor receptor 2 (P35968 whole entry, the tested form may be a part): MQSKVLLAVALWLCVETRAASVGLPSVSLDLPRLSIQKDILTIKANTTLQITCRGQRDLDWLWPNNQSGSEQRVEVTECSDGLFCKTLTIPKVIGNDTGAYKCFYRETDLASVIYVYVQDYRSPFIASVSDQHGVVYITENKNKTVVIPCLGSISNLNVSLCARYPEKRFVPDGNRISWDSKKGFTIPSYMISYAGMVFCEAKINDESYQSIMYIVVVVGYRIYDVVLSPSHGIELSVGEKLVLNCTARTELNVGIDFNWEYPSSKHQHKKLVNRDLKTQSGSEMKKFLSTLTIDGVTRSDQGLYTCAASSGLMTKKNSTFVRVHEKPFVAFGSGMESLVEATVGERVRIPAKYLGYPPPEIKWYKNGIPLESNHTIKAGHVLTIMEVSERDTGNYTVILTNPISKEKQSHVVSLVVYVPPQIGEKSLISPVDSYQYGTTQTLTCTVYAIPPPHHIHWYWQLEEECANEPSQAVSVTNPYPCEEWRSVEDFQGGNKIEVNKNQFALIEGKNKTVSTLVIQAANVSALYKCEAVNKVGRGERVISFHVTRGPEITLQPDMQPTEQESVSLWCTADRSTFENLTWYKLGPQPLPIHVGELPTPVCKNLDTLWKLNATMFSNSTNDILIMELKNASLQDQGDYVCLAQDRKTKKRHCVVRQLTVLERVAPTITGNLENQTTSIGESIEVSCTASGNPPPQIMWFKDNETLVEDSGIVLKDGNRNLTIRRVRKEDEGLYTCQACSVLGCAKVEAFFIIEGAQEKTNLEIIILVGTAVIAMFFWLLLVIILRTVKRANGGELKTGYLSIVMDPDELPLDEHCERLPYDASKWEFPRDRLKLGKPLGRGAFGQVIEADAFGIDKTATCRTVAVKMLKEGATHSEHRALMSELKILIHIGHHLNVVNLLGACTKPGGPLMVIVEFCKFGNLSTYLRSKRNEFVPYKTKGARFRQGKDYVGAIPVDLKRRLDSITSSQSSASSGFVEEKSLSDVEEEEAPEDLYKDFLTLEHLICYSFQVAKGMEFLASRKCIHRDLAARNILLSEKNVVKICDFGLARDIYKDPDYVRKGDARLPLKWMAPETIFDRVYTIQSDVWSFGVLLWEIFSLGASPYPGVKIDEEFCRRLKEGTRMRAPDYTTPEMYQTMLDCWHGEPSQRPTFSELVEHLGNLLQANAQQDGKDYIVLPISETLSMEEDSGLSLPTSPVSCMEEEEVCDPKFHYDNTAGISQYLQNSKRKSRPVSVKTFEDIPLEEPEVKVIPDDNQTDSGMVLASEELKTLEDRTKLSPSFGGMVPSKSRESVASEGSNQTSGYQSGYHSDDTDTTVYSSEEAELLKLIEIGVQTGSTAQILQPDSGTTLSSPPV

Chain of Ephrin type-A receptor 2 (P29317 whole entry, the tested form may be a part): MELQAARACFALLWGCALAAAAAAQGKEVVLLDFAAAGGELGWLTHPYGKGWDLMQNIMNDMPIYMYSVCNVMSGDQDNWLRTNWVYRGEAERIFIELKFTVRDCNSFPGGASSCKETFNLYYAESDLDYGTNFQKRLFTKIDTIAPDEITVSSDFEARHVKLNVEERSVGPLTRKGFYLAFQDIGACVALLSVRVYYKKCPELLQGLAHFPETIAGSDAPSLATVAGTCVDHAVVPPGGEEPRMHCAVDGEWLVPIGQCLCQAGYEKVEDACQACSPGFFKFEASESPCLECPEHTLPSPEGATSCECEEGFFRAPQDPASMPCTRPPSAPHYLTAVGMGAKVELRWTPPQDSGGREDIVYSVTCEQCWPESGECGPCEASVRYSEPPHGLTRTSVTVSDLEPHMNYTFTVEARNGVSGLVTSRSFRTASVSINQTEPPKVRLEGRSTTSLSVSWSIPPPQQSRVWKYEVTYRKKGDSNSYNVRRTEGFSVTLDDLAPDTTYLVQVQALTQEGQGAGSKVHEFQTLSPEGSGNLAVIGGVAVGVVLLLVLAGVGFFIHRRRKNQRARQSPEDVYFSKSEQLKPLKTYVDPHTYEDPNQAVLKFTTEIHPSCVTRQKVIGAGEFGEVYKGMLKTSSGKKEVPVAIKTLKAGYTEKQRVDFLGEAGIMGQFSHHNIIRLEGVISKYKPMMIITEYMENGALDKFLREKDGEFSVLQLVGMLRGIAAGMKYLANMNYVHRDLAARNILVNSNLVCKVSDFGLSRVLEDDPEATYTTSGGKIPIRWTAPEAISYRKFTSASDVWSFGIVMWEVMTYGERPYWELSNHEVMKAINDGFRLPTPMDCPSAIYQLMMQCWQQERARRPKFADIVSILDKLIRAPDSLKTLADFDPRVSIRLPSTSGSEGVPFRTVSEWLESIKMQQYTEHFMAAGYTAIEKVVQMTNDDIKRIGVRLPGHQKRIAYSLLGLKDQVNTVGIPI

| IC50 (Ephrin type-A receptor 2) [µM] | IC50 (Ephrin type-B receptor 4) [µM] | IC50 [1] [µM] | IC50 [2] [µM] | Compound |
| --- | --- | --- | --- | --- |
| < 0.05 | < 0.05 | < 0.05 | 0.05 to 1 | COc1cc2c(Nc3ccc(Cl)c(Cl)c3)ncnc2cc1OCC1CN(S(C)(=O)=O)CCO1 (stereo not given) |
| < 0.05 | < 0.05 | < 0.05 | < 0.05 | COc1cc2c(Nc3ccc(Cl)c(Cl)c3)ncnc2cc1OCC1CN(C(N)=NC#N)CCO1 (stereo not given) |
| 0.05 to 1 | < 0.05 | 0.05 to 1 | 0.05 to 1 | COc1cc2c(Nc3cc(Cl)c(Cl)c(Cl)c3)ncnc2cc1OCC1CN(C)CCO1 (stereo not given) |
| 0.05 to 1 | < 0.05 | < 0.05 | < 0.05 | COc1cc2c(Nc3ccc(Cl)c(Cl)c3)ncnc2cc1OCC1CN(C)C(C)(C)CO1 (stereo not given) |
| 0.05 to 1 | < 0.05 | < 0.05 | 0.05 to 1 | COc1cc2c(Nc3ccc(Cl)c(Cl)c3)ncnc2cc1OCC1CN(CC(N)=O)CCO1 (stereo not given) |
| 0.05 to 1 | < 0.05 | 0.05 to 1 | < 0.05 | CCCCN1CCOC(COc2cc3ncnc(Nc4ccc(Cl)c(Cl)c4)c3cc2OC)C1 (stereo not given) |
| 0.05 to 1 | < 0.05 | < 0.05 | 0.05 to 1 | COc1cc2c(Nc3ccc(Cl)c(Cl)c3)ncnc2cc1OCC1CN(C(=O)C2CCCC2)CCO1 (stereo not given) |
| 0.05 to 1 | < 0.05 | 0.05 to 1 | 0.05 to 1 | COc1cc2c(Nc3ccc(Cl)c(Cl)c3)ncnc2cc1OCC1CN(S(=O)(=O)CCCCl)CCO1 (stereo not given) |
| 0.05 to 1 | < 0.05 | < 0.05 | 0.05 to 1 | COc1cc2c(Nc3ccc(Cl)c(Cl)c3)ncnc2cc1OCC1CN(S(C)(=O)=O)CCCO1 (stereo not given) |
| < 0.05 | < 0.05 | < 0.05 | < 0.05 | CC(C)Oc1cc2c(Nc3ccc(Cl)c(Cl)c3)ncnc2cc1OCC1CN(C)CCO1 (stereo not given) |
| < 0.05 | < 0.05 | < 0.05 | < 0.05 | CCOc1cc2c(Nc3ccc(Cl)c(Cl)c3)ncnc2cc1OCC1CN(C)CCO1 (stereo not given) |
| 0.05 to 1 | < 0.05 | < 0.05 | 0.05 to 1 | CCNC(=NC#N)N1CCOC(COc2cc3ncnc(Nc4ccc(Cl)c(Cl)c4)c3cc2OC)C1 (stereo not given) |
| < 0.05 | < 0.05 | 0.05 to 1 | < 0.05 | COc1cc2c(Nc3ccc(Br)c(Cl)c3)ncnc2cc1OCC1CN(C)CCO1 (stereo not given) |
| 0.05 to 1 | < 0.05 | < 0.05 | 0.05 to 1 | COc1cc2c(Nc3ccc(Cl)c(Cl)c3)ncnc2cc1OCC1CN(C(=O)c2c(C)noc2C)CCO1 (stereo not given) |
| 0.05 to 1 | < 0.05 | < 0.05 | 0.05 to 1 | COc1cc2c(Nc3ccc(Cl)c(Cl)c3)ncnc2cc1OCC1CN(C(C)=O)CCCO1 (stereo not given) |
| < 0.05 | < 0.05 | < 0.05 | 0.05 to 1 | CCS(=O)(=O)N1CCOC(COc2cc3ncnc(Nc4ccc(Cl)c(Cl)c4)c3cc2OC)C1 (stereo not given) |
| < 0.05 | < 0.05 | < 0.05 | 0.05 to 1 | COc1cc2c(Nc3ccc(Cl)c(Cl)c3)ncnc2cc1OCC1CN(/C(=N/C#N)N2CCCC2)CCO1 (stereo not given) |
| 0.05 to 1 | < 0.05 | < 0.05 | 0.05 to 1 | CCC(=O)N1CCOC(COc2cc3ncnc(Nc4ccc(Cl)c(Cl)c4)c3cc2OC)C1 (stereo not given) |

More lines, now with the values behind:

| Compound | IC50 (Ephrin type-A receptor 2) [µM] | IC50 (Ephrin type-B receptor 4) [µM] | IC50 [1] [µM] | IC50 [2] [µM] |
| --- | --- | --- | --- | --- |
| COc1cc2c(Nc3ccc(C)c(Cl)c3Cl)ncnc2cc1OCC1CN(C)CCO1 (stereo not given) | 0.05 to 1 | 0.05 to 1 | 1 to 20 | < 0.05 |
| COc1cc2c(Nc3ccc(Cl)c(Cl)c3)ncnc2cc1OCC1CN(C)C(C)(C)C(=O)O1 (stereo not given) | 0.05 to 1 | < 0.05 | 0.05 to 1 | 0.05 to 1 |
| CN/C(=N\C#N)N1CCOC(COc2cc3ncnc(Nc4ccc(Cl)c(C)c4)c3cc2OC)C1 (stereo not given) | 0.05 to 1 | < 0.05 | < 0.05 | 0.05 to 1 |
| COc1cc2c(Nc3ccc(Cl)c(Cl)c3F)ncnc2cc1OCC1CN(C)CCO1 (stereo not given) | < 0.05 | < 0.05 | < 0.05 | < 0.05 |
| COc1cc2c(Nc3ccc(F)c(Cl)c3F)ncnc2cc1OCC1CN(C)CCO1 (stereo not given) | < 0.05 | < 0.05 | < 0.05 | < 0.05 |
| COc1cc2c(Nc3cccc(Cl)c3F)ncnc2cc1OCC1CN(/C(N)=N/C#N)CCCO1 (stereo not given) | 0.05 to 1 | < 0.05 | < 0.05 | 0.05 to 1 |
| COc1cc2c(Nc3ccc(C)c(Br)c3)ncnc2cc1OCC1CN(C)CCO1 (stereo not given) | 0.05 to 1 | < 0.05 | 0.05 to 1 | < 0.05 |
| COc1cc2c(Nc3ccc(Cl)c(Cl)c3)ncnc2cc1OCCC1CN(C(=O)OC(C)(C)C)C(C)(C)CO1 (stereo not given) | 1 to 20 | 1 to 20 | 1 to 20 | 1 to 20 |
| COc1cc2c(Nc3ccc(Cl)c(Cl)c3C)ncnc2cc1OCC1CN(C)CCO1 (stereo not given) | 0.05 to 1 | < 0.05 | 1 to 20 | 0.05 to 1 |
| COc1cc2c(Nc3ccc(Br)c(Cl)c3F)ncnc2cc1OCC1CN(C)CCO1 (stereo not given) | < 0.05 | < 0.05 | < 0.05 | < 0.05 |
| COc1cc2c(Nc3ccc(Br)c(Cl)c3C)ncnc2cc1OCC1CN(C)CCO1 (stereo not given) | 0.05 to 1 | 0.05 to 1 | 0.05 to 1 | 0.05 to 1 |
| COc1cc2c(Nc3ccc(Cl)c(Cl)c3)ncnc2cc1OCc1csc(C2CCCN(C)C2)n1 (stereo not given) | 0.05 to 1 | 0.05 to 1 | 0.05 to 1 | 0.05 to 1 |
| COc1cc2c(Nc3ccc(Br)c(C)c3)ncnc2cc1OCC1CN(C)CCO1 (stereo not given) | 0.05 to 1 | 0.05 to 1 | 0.05 to 1 | 0.05 to 1 |
| COc1cc2c(Nc3ccc(Cl)c(Cl)c3)ncnc2cc1OCc1nc2c(s1)CN(C)CC2 | 0.05 to 1 | < 0.05 | < 0.05 | 0.05 to 1 |
| COc1cc2c(Nc3ccc(Cl)c(Cl)c3)ncnc2cc1OCCC1CN(C)CC(C)(C)O1 (stereo not given) | 1 to 20 | 0.05 to 1 | 0.05 to 1 | 0.05 to 1 |
| COc1cc2c(Nc3ccc(Br)c(F)c3F)ncnc2cc1OCC1CN(C)CCO1 (stereo not given) | 0.05 to 1 | 0.05 to 1 | 0.05 to 1 | < 0.05 |
| COc1cc2c(Nc3ccc(Cl)c(Cl)c3Cl)ncnc2cc1OCC1CN(C)CCO1 (stereo not given) | < 0.05 | < 0.05 | 0.05 to 1 | < 0.05 |
| COc1cc2c(Nc3cc(F)c(Br)cc3F)ncnc2cc1OCC1CN(C)CCO1 (stereo not given) | 0.05 to 1 | 0.05 to 1 | 0.05 to 1 | < 0.05 |
| COc1cc2c(Nc3cc(F)c(Br)c(F)c3)ncnc2cc1OCC1CN(C)CCO1 (stereo not given) | 0.05 to 1 | 0.05 to 1 | 0.05 to 1 | < 0.05 |
| COc1cc2c(Nc3ccc(Cl)c(Cl)c3)ncnc2cc1OCc1csc(N2CCN(C)CC2)n1 | 0.05 to 1 | 0.05 to 1 | 0.05 to 1 | 0.05 to 1 |
| CCN1CCc2nc(COc3cc4ncnc(Nc5ccc(Cl)c(Cl)c5)c4cc3OC)sc2C1 | 0.05 to 1 | < 0.05 | < 0.05 | 0.05 to 1 |
| COc1cc2c(Nc3ccc(Cl)c(Cl)c3)ncnc2cc1OCCC1CN(C)C(C)(C)CO1 (stereo not given) | 0.05 to 1 | 0.05 to 1 | 0.05 to 1 | 0.05 to 1 |
| CC(C)Oc1cc2c(Nc3ccc(Cl)c(Cl)c3)ncnc2cc1OCC1CNCCO1 (stereo not given) | < 0.05 | < 0.05 | < 0.05 | < 0.05 |
| COc1cc2c(Nc3ccc(Cl)c(Cl)c3)ncnc2cc1OCCC1CNC(C)(C)CO1 (stereo not given) | 0.05 to 1 | 0.05 to 1 | 0.05 to 1 | 0.05 to 1 |
| COc1cc2c(Nc3cc(Cl)c(Cl)cc3F)ncnc2cc1OCC1CN(C)CCO1 (stereo not given) | 0.05 to 1 | < 0.05 | 0.05 to 1 | 0.05 to 1 |
| COc1cc2c(Nc3ccc(Cl)c(Cl)c3)ncnc2cc1OCC1CN(C(=O)c2cccnc2Cl)CCO1 (stereo not given) | 0.05 to 1 | < 0.05 | < 0.05 | < 0.05 |
| COc1cc2c(Nc3ccc(Br)c(Cl)c3Cl)ncnc2cc1OCC1CN(C)CCO1 (stereo not given) | 0.05 to 1 | < 0.05 | 0.05 to 1 | 0.05 to 1 |

— ChEMBL document CHEMBL3882729, “Receptor-type kinase modulators and methods of use” (2009)
